# Source: PMC8041284, “Tunable Methacrylamides for Covalent Ligand Directed Release Chemistry” (Journal of the American Chemical Society, 2021)
# Molecular target: BTK (Homo sapiens, UniProt Q06187)
# Assay: biochemical
# Settings: read-out: BTK inhibition (%)
# Chain of BTK (Q06187 402-655 limits assumed): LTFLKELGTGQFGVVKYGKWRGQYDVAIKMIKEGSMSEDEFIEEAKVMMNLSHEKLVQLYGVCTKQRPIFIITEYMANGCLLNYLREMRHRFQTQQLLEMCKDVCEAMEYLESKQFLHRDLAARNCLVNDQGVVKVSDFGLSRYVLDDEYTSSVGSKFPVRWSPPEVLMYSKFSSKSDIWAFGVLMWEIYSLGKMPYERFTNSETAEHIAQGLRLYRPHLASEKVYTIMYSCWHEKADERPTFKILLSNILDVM
row,Structure (SMILES),inhibition at 10 µM
1,C=CCCCCCCCCC(=O)O[C@H]1CC[C@H]2[C@@H]3CCC4=CC(=O)C=C[C@]4(C)[C@H]3CC[C@]12C [PCM-0215894],10.9%

# Same assay, conditions: read-out: BTK inhibition (%), 0.75 uM BTK, […] probe 3l, 15 min preincubation
row,Structure (SMILES),inhibition at 10 µM
1,O=C(O)c1c[nH]c2cc(Cl)c(-c3ccc(C4(O)CCC4)cc3)cc12 [PCM-0215881],24.7%
2,CC(C)Cc1ccc([C@@H](C)C(=O)NS(C)(=O)=O)cc1 [PCM-0215882],-24.8%
3,CC1=C(CSC(=S)N2CCCCC2)C(=O)c2ccccc2C1=O [PCM-0215883],21.6%
4,CC(=O)N[C@@H]1[C@@H](O[C@@H]2O[C@H](C(=O)O)[C@@H](O)[C@H](O)[C@H]2O)[C@@H](O)[C@@H](OS(=O)(=O)O)O[C@H]1O [PCM-0215884],-22.1%
5,CN1CCN(C(=O)c2ccc(-c3ccc4c(C=O)c(O)ccc4c3)s2)CC1 [PCM-0215885],77.2%
6,CSCCNc1nc(SCCC(F)(F)F)nc2c1ncn2[C@@H]1O[C@H](COP(=O)(O)OP(=O)(O)C(Cl)(Cl)P(=O)(O)O)[C@@H](O)[C@H]1O [PCM-0215886],-50.2%
7,CCOCCn1c(C2CCN(CCc3ccc(C(C)(C)C(=O)O)cc3)CC2)nc2ccccc21 [PCM-0215887],10.2%
8,c1ccc2c(c1)[I+]c1ccccc1-2 [PCM-0215888],-0.7%
9,CC(C)CN(CC(=O)N1CCN(CC(OCc2ccc3ccccc3c2)c2ccc(Cl)cc2Cl)CC1)CC(C)C (stereo not drawn) [PCM-0215889],93.4%
10,CC(=O)N1CCN(c2ccc(NC(=O)Cc3cnc(-c4ccnc(F)c4)c(C)c3)nc2)CC1 [PCM-0215890],-10.8%
11,O=C(NO)c1cnc(NC2(c3ccccc3)CC2)nc1 [PCM-0215891],-10.8%
12,CC(C)OC(=O)CCC/C=C\C[C@@H]1[C@@H](/C=C/[C@@H](O)COc2cccc(C(F)(F)F)c2)[C@H](O)C[C@@H]1O [PCM-0215893],-28%
13,CN(CCNCc1cn(Cc2ccc(Cl)cc2)nn1)CCNc1ccnc2cc(Cl)ccc12 [PCM-0215895],-10.8%
14,S=C(N/N=C1\CCCc2cccnc21)N1CCN(c2ccccn2)CC1 [PCM-0215896],20.1%
15,CO[C@H]1O[C@H](COS(=O)(=O)O)[C@@H](O[C@@H]2O[C@@H](C(=O)O)[C@@H](O[C@H]3O[C@H](COS(=O)(=O)O)[C@@H](O[C@@H]4O[C@H](C(=O)O)[C@@H](O[C@H]5O[C@H](COS(=O)(=O)O)[C@@H](O)[C@H](O)[C@H]5NS(=O)(=O)O)[C@H](O)[C@H]4O)[C@H](OS(=O)(=O)O)[C@H]3NS(=O)(=O)O)[C@H](O)[C@H]2OS(=O)(=O)O)[C@H](O)[C@H]1NS(=O)(=O)O [PCM-0215897],-13.6%
16,CCCCC(CC)COC(=O)C(C#N)=C(c1ccccc1)c1ccccc1 (stereo not drawn) [PCM-0215898],0%
17,Nc1ccc(-c2cccc(C(=O)Nc3cnc4nc(N5CCOCC5)oc4c3)n2)cn1 [PCM-0215899],2.1%
18,O=C1CC(c2c[nH]c3ccc(F)cc23)C(=O)N1 (stereo not drawn) [PCM-0215900],-5.4%
19,CC(=O)N1CCC(Nc2cc(C(=O)NC[C@H](O)CN3CCc4ccccc4C3)ncn2)CC1 [PCM-0215901],-0.8%
20,C=C(C)[C@@H]1CC[C@]2(C)CC[C@]3(C)[C@H](CC[C@@H]4[C@@]5(C)CC[C@H](O)C(C)(C)[C@@H]5CC[C@]43C)[C@@H]12 [PCM-0215902],-9.4%
21,Nc1ncnc2c1ncn2C(C=O)OC(C=O)CO (stereo not drawn) [PCM-0215903],0.8%
22,CCc1ccc(-c2nc(CSCC(=O)NCCc3ccccc3)c(C)o2)cc1 [PCM-0215904],-4.6%
23,COc1ccc(S(=O)(=O)Nc2cc(-c3c(O)ccc4ccccc34)c(O)c3ccccc23)cc1 [PCM-0215905],86.5%
24,O=C(/C=C/c1cccnc1)c1ccncc1 [PCM-0215906],-6.9%
25,Cc1ccn[nH]1 [PCM-0215907],4.6%
26,Cc1cc(C)n(C)n1 [PCM-0215908],-6.9%

row,Structure (SMILES),inhibition at 10 µM
1,C=C1CCOC1=O [PCM-0215909],0.8%
2,C=CCc1cc(OC)c(OC)c(OC)c1 [PCM-0215912],3.1%
3,C/C(=C\CO)CCC[C@H](C)CCC[C@H](C)CCCC(C)C [PCM-0215913],3.9%
4,CC(C)=CCC/C(C)=C/C=O [PCM-0215914],-17%
5,CCCCOCc1ccc(O)c(OC)c1 [PCM-0215915],-15.6%
6,CC1=C[C@H](O)CC(C)(C)[C@H]1/C=C/C(C)=C/C=C/C(C)=C/C=C/C=C(C)/C=C/C=C(C)/C=C/C1=C(C)C[C@@H](O)CC1(C)C [PCM-0215916],0.8%
7,CC12CCC(CC1)C(C)(C)O2 [PCM-0215918],11%
8,COC(=O)c1ccccc1O [PCM-0215919],-10.9%
9,CC(=O)c1ccc(C)cc1O [PCM-0215921],-6.9%
10,COc1cc2c3c(c1OC)-c1ccccc1C[C@H]3N(C)CC2 [PCM-0215922],-12.8%
11,O=C1C2=C(CCN(Cc3ccccc3)C2)N2CCN=C2N1Cc1ccc(C(F)(F)F)cc1 [PCM-0215923],2.3%
12,CC(=O)OC(C)C(C)C(=O)OC[C@@]12[C@H]3C[C@]4(C)C(=CC[C@@H]5[C@@]6(C)CC[C@H](O[C@@H]7O[C@H](C(=O)O)[C@@H](O[C@@H]8O[C@H](CO)[C@@H](O)[C@H](O)[C@H]8O)[C@H](O)[C@H]7O[C@@H]7OC[C@@H](O)[C@H](O)[C@H]7O)[C@@](C)(CO)[C@@H]6CC[C@]54C)[C@@H]1CC(C)(C)[C@H](O3)[C@@H]2O (stereo partly drawn) [PCM-0215924],5.1%
13,Cc1ccc(C(C)C)cc1O [PCM-0215926],-21.4%
14,CC[C@H](C)[C@H](N)C(=O)O [PCM-0215927],7.7%
15,C=CCS[S+]([O-])CC=C (stereo not drawn) [PCM-0215928],-21%
16,CC1CCCCCCCCCCCCC(=O)C1 (stereo not drawn) [PCM-0215929],0.7%
17,CCCCCCCCCC(C)=O [PCM-0215930],10.1%
18,Oc1cc(O)c2c(c1)OC(c1ccc(O)c(O)c1)C(OC1(c3ccc(O)c(O)c3)Oc3cc(O)cc(O)c3C(O)C1O)C2 (stereo not drawn) [PCM-0215931],85.7%
19,CC(=O)O[C@@H]1C[C@@H]2CC[C@@]1(C)C2(C)C [PCM-0215932],-21.4%
20,C[C@@H](c1ccc2nccn2c1)n1nnc2ncc(-c3cnn(C)c3)nc21 [PCM-0215934],-9.3%
21,CCCCCCCCCCCCOC(=O)CS(=O)(=O)O [PCM-0215935],-12.8%
22,O=C(CCCCCCC(=O)N/N=C/c1ccc(N(c2ccccc2)c2ccccc2)cc1)NO [PCM-0215937],15.4%
23,O=c1c(N=Nc2nccs2)c(-c2ccccc2)[nH]n1-c1nc(-c2ccccc2)cs1 [PCM-0215938],98.1%
24,O=C(Nc1ccc(O)c(C(=O)O)c1)c1cccc(NC(=O)c2ccco2)c1 [PCM-0215939],-8.5%
25,O=P(O)(O)OC1C(OP(=O)(O)O)C(OP(=O)(O)O)C(OP(=O)(O)O)C(OP(=O)(O)O)C1OP(=O)(O)O (stereo not drawn) [PCM-0215940],21.3%
26,NC(=O)NCCC[C@H](N)C(=O)O [PCM-0215941],-17.9%

row,Structure (SMILES),inhibition at 10 µM
1,C=CC(=O)Nc1cc(N2CCN(CC)CC2)ccc1Nc1cc(N(C)C(=O)Nc2c(Cl)c(OC)cc(OC)c2Cl)ncn1 [PCM-0215942],19.3%
2,C/C=C(/C)C(=O)OC(=O)/C(C)=C\C [PCM-0215943],-8.6%
3,CC(=O)Oc1c(C)c(C)c2c(c1C)CC[C@@](C)(CCC[C@H](C)CCC[C@H](C)CCCC(C)C)O2 [PCM-0215944],0%
4,Cc1cc2nc3c(=O)[nH]c(=O)nc-3n(C[C@H](O)[C@H](O)[C@H](O)COP(=O)(O)O)c2cc1C [PCM-0215946],3.4%
5,COc1ccc(C[C@@H]2c3cc(Oc4cc(C[C@@H]5c6cc(OC)c(OC)cc6CCN5C)ccc4O)c(OC)cc3CCN2C)cc1 [PCM-0215948],4.6%
6,Cc1ccc(C(C)C)c(O)c1 [PCM-0215949],23.2%
7,CCCCCCCCCCCCCCCCCCCCCCCCCCCCO [PCM-0215950],-11.1%
8,CCCn1c(NC(=O)c2cccc(C(N)=O)c2)nc2ccccc21 [PCM-0215951],-12.4%
9,O=S(=O)(c1ccc2c(c1)C(=NO)c1cc(S(=O)(=O)N3CCCCC3)ccc1-2)N1CCCCC1 [PCM-0215952],-18.5%
10,Cc1nc2cc(F)c(F)cc2n1-c1cncc(Nc2ccc(C(F)(F)F)cc2)n1 [PCM-0215953],-6.2%
11,Cc1ccc(NC(=O)Nc2cc(-c3ccccc3-c3nn[nH]n3)ccc2N(CC(C)C)CC(C)C)cc1 [PCM-0215955],72.6%
12,C=CCSC[C@H](N)C(=O)O [PCM-0215956],3.4%
13,O=C1O[C@H]([C@H](O)CO)C(O)=C1O [PCM-0215957],1.5%
14,CSC[C@H](N)C(=O)O [PCM-0215958],2.6%
15,CN(CC(=O)O)C(N)=NP(=O)(O)O [PCM-0215959],-5.1%
16,Nc1ncnc2c1ccn2[C@@H]1O[C@H]([C@H](O)c2ccccc2)[C@@H](O)[C@H]1O [PCM-0215960],13.1%
17,CC(C)n1c([C@H](C)Nc2ncnc(N)c2C#N)cc2cccc(-c3ccc(=O)n(C)c3)c2c1=O [PCM-0215961],-11.6%
18,O=C(/C=C/c1ccccc1)OCc1ccccc1 [PCM-0215962],6.9%
19,CCN(CC)c1ccc2cc(-c3nc4ccccc4s3)c(=O)oc2c1 [PCM-0215963],-5.1%
20,CC1(C)CCC[C@]2(C)[C@H]3CCO[C@]3(C)CC[C@@H]12 [PCM-0215965],15.4%
21,O=C(/C=C/c1ccc(O)cc1)C1=C(O)[C@](O)([C@@H]2O[C@H](CO)[C@@H](O)[C@H](O)[C@H]2O)C(O)=C(/C=C2/C(=O)C(C(=O)/C=C/c3ccc(O)cc3)=C(O)[C@@](O)([C@@H]3O[C@H](CO)[C@@H](O)[C@H](O)[C@H]3O)C2=O)C1=O [PCM-0215966],-1.5%
22,CCc1c2c(nc3ccccc13)-c1cc3c(c(=O)n1C2)COC(=O)[C@]3(O)CC [PCM-0215967],-20.8%
23,OC[C@H]1O[C@H](Oc2ccc(O)cc2)[C@H](O)[C@@H](O)[C@@H]1O [PCM-0215968],4.6%
24,CC[C@H]1CN2CC[C@H]1C[C@H]2[C@H](O)c1ccnc2ccc(OC)cc12 [PCM-0215969],-13.1%
25,O=C1O[C@H]([C@@H](O)CO)C(O)=C1OP(=O)(O)O [PCM-0215970],-4.3%
